Reference: patent publication US20220288095A1, “SIALIC ACID FOR USE IN THE TREATMENT OF PSORIASIS” (LifeScience AS, priority 2019, published 2022)

System: psoriasis
Test: Treatment of an adult with psoriasis with NGNA
Format: in vivo, human
Conditions: compared to previous treatments
Experimental: Example 2. An adult with psoriasis was treated with 5 mg NGNA per day administered sublingually. Administration caused symptoms associated with the psoriasis including redness, scaling spots, itching, burning and soreness to be reduced as compared to previous treatments.
Example 3. An adult with psoriasis was treated with 5 g NGNA per day administered orally. Administration caused symptoms associated with the psoriasis including redness, scaling spots, itching, burning and soreness to be reduced as compared to previous treatments.
Example 4. An adult with psoriasis was treated with NGNA supplied in a hot water bath.
Example 5. An adult with psoriasis was treated with a dermal spray solution of NGNA in water.

Measured: symptoms associated with the psoriasis including redness, scaling spots, itching, burning and soreness

O=C(CO)N[C@H]1[C@H]([C@H](O)[C@H](O)CO)O[C@](O)(C(=O)O)C[C@@H]1O [NGNA, n-glycolylneuraminic acid]
reduced: 5 mg NGNA per day sublingually | 5 g NGNA per day orally | NGNA supplied in a hot water bath | dermal spray solution of NGNA in water
